Series [1] has as its system bone marrow stromal cells (BMSCs). Briefly: viability of MM patient-derived bone marrow stromal cells (BMSCs). The series is classed as cell-based. An excerpt:
(§1) Besides nuclear condensation, NF-KB inhibitor triggered proteolytic cleavage of poly (ADP ribose) polymerase (PARP), a hallmark of apoptosis.

Series [2] concerns MM cell lines (MM.1S, MM.1R, OCI-MyS, OPM-1, Dox-40). Kind of series: viability of MM cell lines (MM.1S, MM.1R, OCI-MyS, OPM-1, Dox-40). The series is classed as cell-based. The following applies: 48 h; all cell lines; read-out: IC50 range, decrease in cell viability. The procedure:
(§2) Transcription factor NF-KB is linked to growth and survival of multiple myeloma (MM) cells and blockade of NF-KB activity. NPI-1387 (Formula IIB-b1; compound 24 shown above under scheme 4), a potent small-molecule inhibitor of upstream activator of NF-KB, was administered to MM cells and its effect on the viability of MM cells, including those resistant to conventional agents dexamethasone or doxorubicin is shown.

The next series deals with MM cells. Kind of series: apoptosis of MM cells (DAPI, PARP cleavage, caspases). Format: cell-based. Here is the method: as §2, §1
Both caspase-8 and caspase-9 activate downstream caspase-3. […] Collectively, these findings show the efficacy of NF-KB inhibitor to enhance MM cell killing, overcome drug-resistance, and improve patient outcome in MM.

Series [3] deals with NF-κB p65 subunit nuclear translocation. Format: cell-based. The conditions noted are these: LPS-stimulated RAW264.7; 5, 10 and 20 μM. Here is the method:
Cells were pretreated with NPI-1387 (compound 24 under scheme 4 above) at 5, 10 and 20 μM for 1 hr, and then stimulated with 50 ng/ml LPS for 30 min. Coverslips were transferred to clean plates, washed twice in Dulbecco's phosphate buffered saline (DPBS), fixed in 10% formaldehyde for 10 min, and permeabilized with 0.2% Triton X-100 for additional 10 min. Blocking medium (DPBS, 2% BSA, 0.1% Triton X-100) was added for 2 h, and removed by aspiration. Polyclonal goat anti-p65 antibody (Santa Cruz Biotechnology) was added at a 1:1000 dilution for 1 hr. The wells were washed 3 times with DPBS containing 0.1% Triton X-100, and […] of Alexa-488-conjugated anti-goat antibody (1:1000 dilution, Molecular Probes) were added for 30 min. Wells were washed again, and the coverslips were mounted face-down on microscope slides using Vectashield (Vector) mounting medium. Slides were observed under an Olympus fluorescent microscope, images acquired using a Magnafire digital camera, and processed using Adobe Photoshop.

Series [4] deals with peripheral blood mononuclear cells. Briefly: viability of peripheral blood mononuclear cells from normal healthy donors. Format: cell-based.
Description: as §1

The next series concerns IκBα phosphorylation. Kind of series: phosphorylation level of IκBα in LPS-stimulated HPBMC (western blot). Format: cell-based, Human. The conditions noted are these: 13 μM, 20 ng/ml LPS, compared with DMSO control. Here is the method:
One ml/well of 3×10^6/ml HPBMC were seeded in 6-well plate in LGM-3 medium and cultured for 12 hr at 37° C., 5% CO2 and 95% humidified air. Final concentration of 13 μM for formula (IIB-A1) (or 10 μM for TTL3) was added to HPBMC for 1 hr. DMSO was used as a control. Cells were then stimulated with 20 ng/ml LPS diluted in LGM-3 medium from 1 mg/ml stock solution for 30 min, 1 hr, 2 hr and 4 hr. At the end of each time point, cells were harvested by centrifugation and cell pellets were washed once in ice-cold 1× Dulbecco's Phosphate buffered Saline (DPBS). To prepare samples for SDS Polyacrylamide Gel Electrophoresis (SDS-PAGE), cells were lysed in RIPA buffer (50 mM Tris-HCl, pH7.4, 0.9% NaCl, 1% Triton X-100, 0.25% Na-deoxycholate, 1 mM EDTA, 2 mM Na3VO4 and 1× protease inhibitors cocktail) for 15 min on ice. Cell lysates were cleared by centrifugation at 14,000 rpm, 4° C. for 10 min. Protein concentrations of cell lysates were determined by BCA protein assay kit prior to SDS-PAGE. Equal amount of proteins from various cell lysates were resolved on 10% NuPage MES precast gels and transferred to nitrocellulose membranes according to the manufacturer's instructions. […]

pIC50: −log10 of the molar value. Read-outs that look alike come from different tables or passages of the source.

With `C=CC(=O)C1(C)CCCC2(C)C3=CCC(C)(C=C)C[C@@H]3CC[C@H]12` (stereo in doubt) [NPI-1387, 1-[(1S,4aS,7R)-1,4a,7-Trimethyl-7-vinyl-1,2,3,4,4a,6,7,8,8a,9,10,10a-dodecahydro-1-phenanthrenyl]-2-propen-1-one], the figures for the “viability of bone marrow stromal (stem) cells” value in series [1] and in series [1] (listed as NF-KB inhibitor) were “does not affect the viability of bone marrow stem cells” and “does not affect the viability”, respectively. The pIC50 in series [2] is 4.40 to 4.60. For the same molecule, the “Apoptic signaling in MM cells, intrinsic and extrinsic pathways” value with MM cells was “triggered by NPI-1387”. The caspase activation result in the series with MM cells (25 μM) is reported as “induces activation of caspase-8, caspase-9, followed by caspase-3 cleavage”. Moreover, in the series with MM cells (respective IC50 for 48 h), the “apoptosis (nuclear condensation, PARP cleavage)” value was “significant apoptosis”. Moreover, in series [3], the “nuclear translocation of NF-κB (p65) / activated IRAK1” value is “inhibits the NF-κB p65 subunit nuclear translocation in a dose-dependent manner”. Also, the “toxicity against / change in viable peripheral blood mononuclear cells” value is “relatively minimal” in series [4] and “no significant toxicity” in series [4] (listed as NF-KB inhibitor).
Take `C=C[C@@]1(C)CCC=C2[C@H]1CC[C@@H]1[C@](C)(C(=O)NC3CCCCC3)CCC[C@@]21C` [Formula (IIB-A1), N-Cyclohexylamide Derivative of TTL]: the entries for the “level of IκBα phosphorylation in LPS-stimulated HPBMC” value in the series with IκBα phosphorylation (listed as Formula (IIB-a1)) and in the series on IκBα phosphorylation (listed as formula (IIB-A1)) were “decrease” and “effectively inhibited”, respectively.

The pIC50 is the negative decadic logarithm of the IC50, by convention in mol/L.

Values taken from patent US7893299B2, “Interleukin-1 and tumor necrosis factor-αmodulators; syntheses of such modulators and methods of using such modulators” (Nereus Pharmaceuticals, Inc., priority 2005, dated 2011).
